According to paper PMC11091888, “Evaluation of Fusobacterium nucleatum Enoyl-ACP Reductase (FabK) as a Narrow-Spectrum Drug Target” (ACS Infectious Diseases, 2024):
≈ marks a conversion by molar mass, not a printed value. Read-outs that look alike come from different tables or passages of the source.

Legend:
[1] = tested on: E. faecalis FA2–2; test: MIC against wild-type E. faecalis FA2-2 (FabI and FabK); type: cell-based, Enterococcus faecalis; conditions: E. faecalis FA2-2, possesses both FabI and FabK; for MIC: Enterococcus faecalis, read-out: MIC Ef wild-type
Description: (§1) Compounds were twofold serially diluted (100–0.2 μg/mL) across a 96-well plate in 100 μL of media used for the specific organism (Table S4). For anaerobes, plates were incubated anaerobically at 37 °C for 1 h and then inoculated with approximately 10^5 to 10^6 CFU/well. Plates were incubated at 37 °C for up to 48 h, and MICs were read by visual inspection.

[2] = tested on: E. faecalis FA2–2ΔfabI; test: MIC against E. faecalis FA2-2 fabK+ (ΔfabI, possesses only FabK); type: cell-based, Enterococcus faecalis; conditions: for MIC Ef fabK+: E. faecalis FA2-2 ΔfabI, possesses only FabK; for MIC: Enterococcus faecalis, read-out: MIC Ef fabK+, E. faecalis FA2-2 ΔfabI, possesses only FabK
Description: as §1

[3] = tested on: E. faecalis FA2–2ΔfabK; test: MIC against E. faecalis FA2-2 fabI+ (ΔfabK, possesses only FabI); type: cell-based, Enterococcus faecalis; conditions: E. faecalis FA2-2 ΔfabK, possesses only FabI
Description: as §1

[4] = tested on: F. nucleatum 23726; test: MIC against F. nucleatum 23726; type: cell-based, Fusobacterium nucleatum; conditions: three biological replicates; for MIC Fn 23726: F. nucleatum 23726 wild-type; for MIC: Fusobacterium nucleatum, 23726, F. nucleatum 23726 wild-type, read-out: MIC Fn 23726
Description: as §1

[5] = tested on: CdFabK; design: method as in PMID 37224699; conditions: previously reported, cited from earlier work
[6] = target: FnFabK (Fusobacterium nucleatum subsp. nucleatum, UniProt Q8RGV3); test: biochemical; conditions: for IC50: IC50 against FnFabK
Sequence of FnFabK (Q8RGV3 entry or part of it): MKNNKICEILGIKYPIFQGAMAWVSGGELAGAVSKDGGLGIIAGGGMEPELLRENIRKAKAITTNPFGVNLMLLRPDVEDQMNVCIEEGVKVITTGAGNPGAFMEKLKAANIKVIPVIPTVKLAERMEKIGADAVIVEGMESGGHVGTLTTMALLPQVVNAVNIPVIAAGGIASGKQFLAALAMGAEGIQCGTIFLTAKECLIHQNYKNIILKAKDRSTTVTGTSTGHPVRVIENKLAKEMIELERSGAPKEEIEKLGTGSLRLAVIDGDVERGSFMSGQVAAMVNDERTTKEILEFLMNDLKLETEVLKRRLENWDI
Description: Incubation lasted for a total of 10 min before the addition of crotonyl-CoA substrate, and the reaction was initiated by the addition of NADH for a final assay volume of 100 μL. The oxidation of NADH to NAD+ was measured by tracking fluorescence (340 nm/460 nm) with a Biotek Synergy H1 microplate reader in 15 s intervals for a total of 10 min to monitor the rate of reaction. The reaction was conducted in Greiner Bio-One 384-well μClear Bottom Polystyrene Microplates. […] Measurements were conducted in triplicate, and IC50’s were calculated via GraphPad Prism 9.1.2 using four-parameter logistic (Hill) curve analysis using equation Y = bottom + (top – bottom)/[1 + 10 (Log IC50 – X) × Hill Slope], where X is the logarithm of the dose and Y is the response. The assay concentrations of the cofactor, NADH, and substrate, crotonyl-CoA, were also determined via GraphPad Prism 9.1.2 using the substrate inhibition model to determine Km(app).

[7] = tested on: C. difficile infection (CDI); conditions: cited from earlier work
[8] = Cytotoxicity against Vero cells (resazurin viability); type: cell-based; conditions: monkey, Vero epithelial cells, maximum tested concentration 100 μg/mL
Description: This was done as described[36] using colorectal carcinoma HCT116 and Vero epithelial cells cultured at 37 °C in 5% CO2 in Dulbecco’s modified Eagle’s medium (DMEM) with 4.5 g/L glucose and L-glutamine. The medium was supplemented with 10% v/v FetalGro (Rocky Mountain Biologicals). Approximately 25,000/well were aliquoted into black 96-well plates (Greiner Bio-One) and incubated overnight, before being resuspended in DMEM supplemented with 20% Gibco KnockOut Serum Replacement (Thermo Fisher Scientific). Compounds (100–1.6 μg/mL) were then added to the cells and incubated for 24 h at 37 °C and 5% CO2. Cell viability was analyzed using resazurin as described.[36]

[9] = tested on: F. nucleatum 23726; test: Growth in FAS-II inhibitor with or without exogenous fatty acids; type: cell-based, Fusobacterium nucleatum; conditions: fatty acid mixture of Table S2
Description: To plates containing twofold serial dilutions of compounds, exponential phase cultures were added to a final OD600nm of 0.1. Plates containing F. nucleatum in Columbia broth were incubated at 37 °C inside of a Tecan Infinite 200 Pro, which was inside an anaerobic chamber; growth kinetics for Streptococcus spp. in brain heart infusion broth were done aerobically in the same Tecan instrument.

[10] = tested on: F. nucleatum 23726 overexpression strains; test: MIC against F. nucleatum 23726 transformed with empty vector, fabK or fabX under ATc-inducible promoter; type: cell-based, Fusobacterium nucleatum; conditions: Fusobacterium nucleatum
Description: The transformation of F. nucleatum 23726 was performed via electroporation as previously described,[41] except that Columbia broth was used. (i) Antisense vector: F. nucleatum gene silencing vector, pHFK2, was developed by inserting the ATc inducible paired-termini antisense sequences from the clostridial vector pMSPT into pCWU6, a F. nucleatum vector.[56] pCWU6 was amplified by PCR (CloneAmp polymerase) and recombined with the BamHI and KpnI fragments of pMSPT containing the Tet promoter and paired-termini sequences.[26] Antisense nucleotides targeting either 50 bp upstream and downstream of the fabK start codon (FabKAS1) or 25 bp upstream and 75 bp downstream (FabKAS2) were cloned into SphI and XhoI restriction sites of pHFK2. (ii) Complementation vectors: these were generated by PCR amplifying the fabK promoter and gene and introducing KpnI and HindIII restriction sites at 5′ and 3′ ends, respectively. Purified PCR amplicons were inserted into the KpnI and HindIII sites of pCWU6. (iii) Overexpression vectors: the corresponding gene, fabK or fabX, was amplified via PCR, introducing HindIII or SacI restriction sites to the 5′ end, respectively. BamHI restriction sites were introduced to the 3′ end of both. Purified PCR amplicons were inserted into the respective restriction sites of pHFK2. (iv) Allelic exchange vector: vector, pCWU8-FabK, was generated using a previously described protocol,[41],[56] whereby 1-kb regions upstream and downstream of fabK were cloned into the suicide vector pCWU8 using a Gibson Assembly Cloning Kit (New England Biolabs). The recombinant vector was transformed into strain F. nucleatum 23726ΔgalK, and successful integrants were collected that were resistant to thiamphenicol (5 μg/mL). Since the suicide vector expresses GalK, which is toxic in the presence of 2-deoxy-D-galactose (2-DG), the compound 2-DG (0.25% w/v) was added to counter-select for mutants that underwent a second homologous recombination. Ten resulting colonies were then tested for deletion of fabK via PCR, using primers in Table S7. The experiment was independently performed twice for a total of 20 colonies screened for fabK deletion. All experiments were done anaerobically at 37 °C in tryptic soy broth supplemented with 1% w/v peptone and 0.25% w/v autoclaved L-cysteine hydrochloride (TSPC) or TSPC agar with thiamphenicol or 2-DG.
as §1

| SMILES | MIC Ef wild-type [1] [µg/mL] | MIC Ef fabK+ [2] [µg/mL] | MIC Ef fabI+ [3] [µg/mL] | MIC Fn 23726 [4] [µg/mL] | other results |
| --- | --- | --- | --- | --- | --- |
| O=C(NCc1nc2ccccc2[nH]1)Nc1ncc(Sc2ccccn2)s1 [Compound 675] | 100 (≈ 261 µM) | 0.8 (≈ 2.09 µM) | 100 (≈ 261 µM) | 100 (≈ 261 µM) |  |
| O=C(NCc1nc(-c2ccc(Br)cc2)c[nH]1)Nc1ncc(Sc2ncccc2C(F)(F)F)s1 [Compound 683] | 100 (≈ 180 µM) | <0.1 | 100 (≈ 180 µM) | 3.1 (≈ 5.58 µM) |  |
| O=C(NCc1nc(-c2ccccc2)n[nH]1)Nc1ncc(Sc2ccccn2)s1 [Compound 676] | 100 (≈ 244 µM) | 0.2 (≈ 0.488 µM) | 100 (≈ 244 µM) | 100 (≈ 244 µM) |  |
| O=C(NCc1nc(-c2ccc(Br)cc2)c[nH]1)Nc1nc2ccccc2s1 [Compound 701] |  |  |  |  | MIC [1]: 100 µg/mL (≈ 233 µM); MIC [2]: < 0.1 µg/mL; IC50 against CdFabK, equivalent concentration [5]: 0.8 µg/mL; IC50 ([5]; read-out: IC50 against CdFabK): 1880 nM; IC50 ([6]; equivalent concentration, conversion of the μM value): 10.7 µM; IC50 ([6]; purified FnFabK, three replicates): 10.6 µM; Hill coefficient (FnFabK inhibition) ([6]; four-parameter logistic fit): 1.06; MIC [4]: 1.6 µg/mL (≈ 3.74 µM) |
| O=C(NCc1nc(-c2ccc(Br)cc2)c[nH]1)Nc1ncc(Sc2nc3ccccc3s2)s1 [Compound 703] | 100 (≈ 184 µM) | <0.1 | 100 (≈ 184 µM) | 100 (≈ 184 µM) |  |
| CCOc1ccc2sc(NC(=O)NCc3nc(-c4ccc(Br)cc4)c[nH]3)nc2c1 [Compound 690] | 25 (≈ 52.9 µM) | <0.1 | 25 (≈ 52.9 µM) | 25 (≈ 52.9 µM) |  |
| O=C(NCc1nc(-c2ccc(Br)cc2)c[nH]1)Nc1ncc(Sc2ccc(Br)cc2)s1 [Compound 702] | 100 (≈ 177 µM) | <0.1 | 100 (≈ 177 µM) | 100 (≈ 177 µM) |  |
| O=C(NCc1nc(-c2ccc(Br)cc2)c[nH]1)Nc1nc2cc(Cl)ccc2s1 [Compound 689] | 25 (≈ 54 µM) | <0.1 | 25 (≈ 54 µM) | 6.3 (≈ 13.6 µM) |  |
| O=C(NCc1nc(-c2ccc(Br)cc2)c[nH]1)Nc1nc2c(F)cc(F)cc2s1 [Compound 674] | 100 (≈ 215 µM) | <0.1 | 100 (≈ 215 µM) | 100 (≈ 215 µM) |  |
| O=C(NCc1nc(-c2ccc(Br)cc2)c[nH]1)Nc1ncc(Sc2ccc(C(F)(F)F)cn2)s1 [Compound 684] | 100 (≈ 180 µM) | <0.1 | 100 (≈ 180 µM) | 3.1 (≈ 5.58 µM) |  |
| O=C(NCc1nc(-c2ccc(Br)cc2)c[nH]1)Nc1nc2ccc(Br)cc2s1 [Compound 671] | 50 (≈ 98.6 µM) | <0.1 | 50 (≈ 98.6 µM) | 25 (≈ 49.3 µM) |  |
| O=C(NCc1nc(-c2ccc(Br)cc2)c[nH]1)Nc1nc2ccc(F)cc2s1 [Compound 670] | 100 (≈ 224 µM) | <0.1 | 100 (≈ 224 µM) | 100 (≈ 224 µM) |  |
| O=C(NCc1nc(-c2ccc(Br)cc2)c[nH]1)Nc1ncc(Sc2ccccn2)s1 [Compound 296, 1-[4-(4-bromophenyl)-1H-imidazole-2-yl]methyl-3-[5-(pyridin-2-ylthio)thiazol-2-yl]urea] |  |  |  | 100 (≈ 205 µM) | MIC [1]: 100 µg/mL (≈ 205 µM); MIC [2]: < 0.1 µg/mL; MIC [4]: > 100 µg/mL; Efficacy in treating C. difficile infection (CDI) in mice [7]: efficacious |
| O=C(NCc1nc(-c2ccc(Br)cc2)c[nH]1)Nc1ncc(Sc2ccc3ccccc3n2)s1 [Compound 680] | 100 (≈ 186 µM) | <0.1 | 100 (≈ 186 µM) | 100 (≈ 186 µM) |  |
| COc1cccc2c1C(=O)c1c(O)c3c(c(O)c1C2=O)C[C@@](O)(C(=O)CO)C[C@@H]3O[C@H]1C[C@H](N)[C@H](O)[C@H](C)O1 [doxorubicin, reference compound] |  |  |  |  | IC50 at 24 h [8]: 8.1 ± 1 µg/mL (≈ 14.9 µM) |
| C=C/C(C)=C/[C@@]1(C)SC(=O)C(C)=C1O [thiolactomycin, reference compound] |  |  |  |  | Effect of exogenous fatty acids on growth inhibition of F. nucleatum [9]: did not rescue; MIC ([10]; read-out: MIC, FabK overexpression, induced): 3.9 µg/mL; MIC ([10]; read-out: MIC, FabK overexpression, uninduced): 7.8 µg/mL; MIC ([10]; read-out: MIC, FabX overexpression, induced): 3.9 µg/mL; MIC ([10]; read-out: MIC, FabX overexpression, uninduced): 7.8 µg/mL; MIC ([10]; read-out: MIC, empty vector, induced): 7.8 µg/mL; MIC ([10]; read-out: MIC, empty vector, uninduced): 7.8 µg/mL |
| O=C(NCc1nc(-c2ccc(Br)cc2)c[nH]1)Nc1ncc(Sc2ccc(Cl)cn2)s1 [Compound 682] | 100 (≈ 192 µM) | <0.1 | 100 (≈ 192 µM) | 3.1 (≈ 5.94 µM) |  |
| O=C(NCc1nc(-c2ccc(Br)cc2)c[nH]1)Nc1ncc(Sc2ncccn2)s1 [Compound 679] | 100 (≈ 205 µM) | <0.1 | 100 (≈ 205 µM) | 6.3 (≈ 12.9 µM) |  |
